These results are taken from patent US5242945A, “Tetronic and thiotetronic acid derivatives as phospholipase A2 inhibitors” (American Home Products Corporation, priority 1991, dated 1993).

Experiment [1] relates to LTB4 biosynthesis in purified human neutrophils. Briefly: LTB4 biosynthesis in human polymorphonuclear neutrophils (in vitro phospholipase A2 assay). As to conditions: Neutrophil, human PMN. In kind it is cell-based. How it is done:
(§1) The compounds of the invention are tested in an in vitro phospholipase A2 assay to determine the ability of the compounds to inhibit the biosynthesis of platelet-activating factor and LTB4 in purified human neutrophils.
(§2) A leukocyte enriched blood sample obtained from a healthy donor is procured by leukophoresis using a Haemonetics model 30+ blood processor (Biological Specialties, Inc., Lansdale, Penn.). The top "platelet-rich" layer is removed after a low speed spin (35 xg, 15 min, 25° C.) of the sample. The remaining cell suspension is centrifuged (400 xg, 10 min, 25° C.) to sediment the remaining cells. The supernatant is discarded and the cell pellet resuspended in 120 ml HBSS (without Ca^++ /Mg^++). The cell suspension is subjected to ficoll-hypaque sedimentation (Histopaque 1077, 400 xg, 30 min, 25° C.). Contaminating erythrocytes are lysed by hypotonic shock (1 min). The cells are then washed once with 40 ml of HBSS and resuspended with HBSS (without Ca^++ /Mg^++) to a concentration of 2.5×10^7 cells/ml for further use. Greater than 95% purity is obtained, as assessed by microscopic examination.
(§3) One ml of human PMN (2.5×10^7 cells/ml) is incubated with vehicle or drugs (10 μl) for 10 minutes at 30° C. After preincubation, an equal volume of HBSS (1 ml) containing 2.4 mM CaCl2, 6 μM calcium ionophore A23187 and 50 μCi [^3 H]-acetate is then incubated at 30° C. for 15 minutes. An aliquot (100 μl) of the reaction mixture is taken out and mixed with 900 μl of 15% ethanol. LTB4 is extracted by using solid phase extraction on reverse phase C18 columns to remove excess [^3 H]-acetate and PAD. The C18 column is prewashed once with 2 ml of ethanol and water. The sample aliquot is acidified with 0.1N HCl to pH 3 before applying to the column. The column is then washed with 2 ml of water followed by 2 ml of 15% ethanol and 2 ml of petroleum ether to remove excess labeled acetate. The sample is eluted with 2 ml of ethyl acetate. The collected samples are dried with nitrogen and resuspended in 0.5 ml RIA buffer. The quantity of LTB4 in the sample is obtained from RIA determination. For PAF determination, the reaction is terminated by addition of 5 ml chloroform:methanol:acetic acid (2:1:0.04, v/v/v). [^3 H]-PAF is obtained by Bligh and Dyer extraction. The chloroform phase is removed and dried under nitrogen. The residue is redissolved in 75 μl of chloroform:methanol (80:20, v/v). [^3 H]-PAF is resolved from other phospholipids by TLC on RPC18 plates with a solvent system of chloroform:methanol:water (2:3:1, v/v/v) and is quantitated using a Berthold automated TLC linear analyzer.
(§4) Data presented are the mean +/- s.d. of the values relative to control A23187 stimulated cells for each experiment assayed in triplicate. Percent inhibition when used is calculated as:
(§5) % Inhibition=100-[(x.div.Control)×100].
(§6) Dose response analysis is performed by non-linear regression analysis for curve fitting and IC50 determination.

For experiment [2], the target named is T1, human synovial fluid PLA2 (Homo sapiens, UniProt P14555).
T1 construct: Purified human synovial fluid; from tissue; host or cells: human synovial fluid
T1 sequence (P14555 21-144): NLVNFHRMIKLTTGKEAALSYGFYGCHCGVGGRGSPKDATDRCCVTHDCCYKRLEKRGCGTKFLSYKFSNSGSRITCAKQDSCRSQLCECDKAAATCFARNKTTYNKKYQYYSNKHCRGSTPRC
Briefly: in vitro isolated phospholipase A2 assay, human synovial fluid PLA2. In kind it is biochemical. As to conditions: for inhibition at 10 µM: + values given without explanation, read-out: % Inhibition HSF (human synovial fluid); for IC50: Table IV, read-out: IC50 HSF (human synovial fluid). The method in brief:
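PLA2 from semipurified human platelet acid extract or purified human synovial fluid, preincubated 30 min at room temperature with compound. ³H-arachidonate-labelled E. coli substrate then added in Tris-HCl pH 7.5, with enzyme giving about 12% hydrolysis. Reaction ran 10 min at 37° C; released arachidonic acid recovered on NH2 columns and measured by β-counting.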

Experiment [3] has as its system platelet-activating factor (PAF) biosynthesis in human polymorphonuclear neutrophils (PMN). Briefly: platelet-activating factor biosynthesis in human polymorphonuclear neutrophils (in vitro phospholipase A2 assay). In kind it is cell-based. The conditions noted are these: Polymorphonuclear neutrophil, human PMN. How it is done:
as §1, §2, §3, §4, §5, §6

A further experiment deals with 5-lipoxygenase (LTC4). Briefly: resident murine peritoneal macrophage assay, LTC4. In kind it is cell-based, mouse (Swiss Webster). As to conditions: for IC50: read-out: LTC4 zymosan IC50; for LTC4 AA % Inhibition: arachidonic acid stimulation. How it is done:
The ability of the compounds of the invention to act as inhibitors of the enzymes 5-lipoxygenase and cyclooxygenase is measured in the resident murine peritoneal macrophage assay.
Resident peritoneal macrophages are collected from female Swiss Webster mice (49 days old, 20-25 gms, Buckshire) by lavaging with 7-8 ml Hanks Balanced Salt Solution (HBSS) without Ca^++ and Mg^++ (GIBCO). The lavage fluid from several mice is pooled and centrifuged at 4° C. for 10 minutes at 400 xg.
Residual serum and cellular debris are removed from the monolayers by washing 3× with 2 ml HBSS containing Ca^++ and Mg^++. Macrophages are preincubated for 5 minutes with 1 ml serum-free M199 containing 10 μl dimethyl sulfoxide (DMSO) vehicle or test compound prior to cell activation with zymosan ([…]) or arachidonic acid (AA) (2 μM). After 2 hours, the supernatants are removed and either assayed for LTC4 and PGE2 by radioimmunoassay (RIA) directly or stored at -20° C. In all cases, results are expressed as ng metabolite/4×10^6 cells.
Raw data (dpm) may be stored directly onto an "Autostart" tape using the HP85 in room C-096. The raw data are converted to ng metabolite/4-10^6cells using the standard curve by a "RIANAL" program (HP85) or a "NONLIN" program (HP9816). Results are then expressed as percent inhibition of zymosan induced, leukotriene or prostaglandin synthesis (control) using the equation: [formula]

[4] abbreviates: Mus musculus, Peritoneal macrophage, zymosan stimulation.

Turning to `CCCCC/C=C\C/C=C\CCCCCCCC(=O)C1=C(O)CSC1=O` [Example 46, 4-Hydroxy-3[(Z,Z)-1-oxo-9,12-octadecadienyl]-2(5H)-thiophenone], the inhibition at 50 µM in experiment [1] was found to be 39%; in experiment [3] it was 50%. The inhibition at 10 µM in experiment [2] amounted to 72%. The inhibition at 25 µM in experiment [3] came out at 7%. Also, the 50% inhibitory concentration (IC50) in the experiment on 5-lipoxygenase (LTC4) (setting [4]) was 0.3 µM. Also, in the experiment on 5-lipoxygenase (LTC4) (dose 0.5 (unit not given)), the “LTC4 AA % Inhibition” value was -9%.

Regarding `CCCCCCCCCCC/C=C\CCCCC(=O)C1=C(O)COC1=O` [Example 18, (Z)-4-Hydroxy-3-(1-oxo-6-octadecenyl)-2(5H)-furanone], in experiment [1], the inhibition at 25 µM turned out to be 83%. Moreover, in experiment [2], the inhibition at 10 µM worked out at 9%. In experiment [3], the inhibition at 25 µM was 53% and the inhibition at 50 µM came to 47%. For the same molecule, the IC50 in the experiment on 5-lipoxygenase (LTC4) (setting [4]) was found to be 0.16 µM. Further, the “LTC4 AA % Inhibition” value with 5-lipoxygenase (LTC4) (dose 0.3 (unit not given)) is recorded as -6%.

As for `CCCCCCCCCCC/C=C\CCCCC(=O)C1=C(O)CSC1=O` [Example 51, 4-Hydroxy-3-[(Z)-1-oxo-6-octadecenyl]-2(5H)-thiophenone], in experiment [2], the inhibition at 10 µM turned out to be 29.4%. Moreover, the inhibition at 50 µM in experiment [3] turned out to be 70%. For the same molecule, in the experiment with 5-lipoxygenase (LTC4) (setting [4]), the inhibition at 0.1 µM was found to be 21.1% and the inhibition at 0.5 µM worked out at 59.4%. Further, in the experiment with 5-lipoxygenase (LTC4) (dose 0.5 (unit not given)), the “LTC4 AA % Inhibition” value is on record as -4%.

For `CCCC/C=C\CCCCCCCC(=O)C1=C(O)CSC1=O` [Example 48, 4-Hydroxy-3-[(Z)-1-oxo-9-tetra-decenyl]-2(5H)-thiophenone], the inhibition at 25 µM came to 86% in experiment [1] and 76% in experiment [3]. In addition, in experiment [2], the inhibition at 10 µM came to 50.9%. Moreover, the inhibition at 0.1 µM in the experiment on 5-lipoxygenase (LTC4) (setting [4]) turned out to be 25.3%. In addition, the inhibition at 1 µM in the experiment with 5-lipoxygenase (LTC4) (Mus musculus, Peritoneal macrophage, zymosan stimulation, 1.0 μM) worked out at 77.1%. Moreover, the “LTC4 AA % Inhibition” value with 5-lipoxygenase (LTC4) (dose 0.3 (unit not given)) is listed as -5%.

Take `CCCCC/C=C\C/C=C\CCCCCCCC(=O)C1=C(O)COC1=O` [Example 14, (Z,Z)-4-Hydroxy-3-(1-oxo-9,12-octadecadienyl)-2(5H)-furanone]: in experiment [1], the inhibition at 10 µM came to 30% and the inhibition at 25 µM is -5%. Also, in experiment [2], the IC50 amounted to 0.48 µM and the inhibition at 10 µM was 95%. For the same molecule, in experiment [3], the inhibition at 10 µM worked out at 16%, the inhibition at 25 µM is 19% and the inhibition at 50 µM was determined as 64%. Further, the “LTC4 AA % Inhibition” value in the experiment on 5-lipoxygenase (LTC4) (dose 5 (unit not given)) was 61%.

In the case of `CCCCC/C=C\C/C=C\C/C=C\CCCCC(=O)C1=C(O)COC1=O` [Example 20, (Z,Z,Z)-4-Hydroxy-3-(1-oxo-6,9,12-octadecatrienyl)-2(5H)-furanone], the inhibition at 50 µM was found to be 95% in experiment [1] and 83% in experiment [3]. Further, the inhibition at 10 µM in experiment [2] came to 81%. Moreover, the half-maximal inhibitory concentration (IC50) in the experiment with 5-lipoxygenase (LTC4) (setting [4]) is 0.7 µM. Besides, the “LTC4 AA % Inhibition” value in the experiment on 5-lipoxygenase (LTC4) (dose 1.0 (unit not given)) is -51%.

For the molecule `CCCCCCCC/C=C\CCCCCCCC(=O)C1=C(O)CSC1=O` [Example 47, 4-Hydroxy-3-[(Z)-1-oxo-9-octadecenyl]-2(5H)-thiophenone], the inhibition at 50 µM in experiment [1] is 47%; in experiment [3] it was 35%. Also, the inhibition at 10 µM in experiment [2] stood at 34.8%. Besides, the inhibition at 0.1 µM with 5-lipoxygenase (LTC4) (setting [4]) is 46.2%. The IC50 in the experiment on 5-lipoxygenase (LTC4) (setting [4]) amounted to 0.1 µM. The “LTC4 AA % Inhibition” value with 5-lipoxygenase (LTC4) (dose 0.3 (unit not given)) is reported as 9%.

As to `CCCCC/C=C\C/C=C\C/C=C\CCCCC(=O)C1=C(O)CSC1=O` [Example 50, 4-Hydroxy-3-[(Z,Z,Z)-1-oxo-6,9,12-octadecatrienyl]-2(5H)-thiophenone], the inhibition at 25 µM in experiment [1] stood at 100%. In experiment [2], the inhibition at 10 µM is 55.9%. The inhibition at 10 µM in experiment [3] turned out to be 42%. In the experiment with 5-lipoxygenase (LTC4) (setting [4]), the inhibition at 0.1 µM was found to be 38.8% and the inhibition at 0.5 µM amounted to 48.1%. Besides, the “LTC4 AA % Inhibition” value with 5-lipoxygenase (LTC4) (dose 0.5 (unit not given)) is -33%.

Regarding `CCCC/C=C\CCCCCCCC(=O)C1=C(O)COC1=O` [Example 25, 4-Hydroxy-3-((Z)-1-oxo-9-tetradecenyl)-2(5H)-furanone], the inhibition at 10 µM in experiment [1] amounted to 74%; in experiment [2], 28.8%. Further, the figures for the inhibition at 50 µM in experiment [1] and in experiment [3] were 97% and 47%, respectively. The IC50 in experiment [2] came out at 33.4 µM; in the experiment on 5-lipoxygenase (LTC4) (setting [4]) it was 0.25 µM. The “LTC4 AA % Inhibition” value with 5-lipoxygenase (LTC4) (dose 0.6 (unit not given)) was -4%.

As for `CC/C=C\C/C=C\C/C=C\CCCCCCCC(=O)C1=C(O)COC1=O` [Example 15, (Z,Z,Z)-4-Hydroxy-3-(1-oxo-9,12,15-octadecatrienyl)-2(5H)-furanone], the figures for the inhibition at 50 µM in experiment [1] and in experiment [3] were 68% and 21%, respectively. Besides, the inhibition at 10 µM in experiment [2] came to 77.5%. Moreover, in the experiment with 5-lipoxygenase (LTC4) (setting [4]), the IC50 came to 0.45 µM.

For the molecule `O=C(CCCCCCC/C=C\c1ccc(Cl)cc1)C1=C(O)COC1=O` [Example 35, 3-[(Z)-10-(4-chlorophenyl)-1-oxo-9-decenyl]-4-hydroxy-2(5H)-furanone], the results for the inhibition at 10 µM in experiment [1] and in experiment [2] were 81.6% and 28.4%, respectively. Also, the figures for the inhibition at 50 µM in experiment [1] and in experiment [3] were 98.5% and 5%, respectively. Moreover, the half-inhibitory concentration (IC50) was found to be 16 µM in experiment [2] and 0.3 µM with 5-lipoxygenase (LTC4) (setting [4]).

On to `CCCCCCCC/C=C\CCCCCCCC(=O)C1=C(O)COC1=O` [Example 9, (Z)-4-Hydroxy-3-(1-oxo-9-octadecenyl)-2(5H)-furanone], for which the figures for the inhibition at 50 µM in experiment [1] and in experiment [3] were 100% and 56%, respectively. Besides, the IC50 in experiment [2] was 1.1 µM; with 5-lipoxygenase (LTC4) (setting [4]) it was 0.2 µM. Besides, in experiment [2], the inhibition at 10 µM came out at 97.3%. The “LTC4 AA % Inhibition” value in the experiment on 5-lipoxygenase (LTC4) (dose 0.3 (unit not given)) is listed as 8%.

Turning to `CCCCCC1CC1CC1CC1CCCCCCCC(=O)C1=C(O)COC1=O` (stereo not shown) [Example 22, 4-Hydroxy-3-[1-oxo-8-[2-[(2-pentylcyclopropyl)methyl]cyclopropyl]octyl]-2(5H)-furanone], in experiment [1], the inhibition at 10 µM is 93% and the inhibition at 25 µM is 91%. Besides, in experiment [2], the IC50 stood at 2.5 µM and the inhibition at 10 µM was 89.8%. For the same molecule, in experiment [3], the inhibition at 10 µM turned out to be 24%, the inhibition at 25 µM is 49% and the inhibition at 50 µM is 67%. In the experiment with 5-lipoxygenase (LTC4) (setting [4]), the IC50 stood at 0.2 µM.
